# Measured values published in US20050065136A1, “Methods and compositions for the treatment of infertility using dilute hormone solutions” (priority 2003, published 2005).
# Experiments:
# Assay type in all cases: in vivo, human
# [1] = Symptom relief on a 0 to 10 scale in women with acute asthma after intradermal progesterone
# Procedure: To test this hypothesis, 142 women with acute asthma were asked to evaluate the severity of their symptoms using an eleven point scale. Ten was assigned to the most severe symptoms, while 0 was assigned to an absence of symptoms. Immediately after assessing their symptoms on this scale, patents were administered 0.5 mg of progesterone by intradermal injection. Approximately 15 to 30 seconds after the injection was administered, each patient was asked if her symptoms were worse, better, or unchanged. Each patient was also asked to rate her present symptoms on the same 0 to 10 scale. […] Of the 142 patients tested 129 (91%) positively responded to the treatment. Using the random effects calculations described in Example 3, this correlates to a less than 0.1% chance that the results are random. Thus the results may be considered highly significant.
# [2] = Clinical responses of hormone allergy symptoms to intradermal administration of progesterone; conditions: dilute doses, sublingually or intradermally
# Procedure: Patients experiencing several hormone allergy symptoms experienced relief when administered dilute doses of progesterone either sublingually or intradermally. […] The symptoms measured were irritation or pain in the neck, nose, eyes, throat, ear, skin, back, hips, upper extremities and lower extremities, headache, and shortness of breath. The patients were administered 0.5 mg of progesterone intradermally. Patients were designated as responding patients in Table 2 if they experienced any relief of the indicated symptom. Patients were also asked to estimate the amount of improvement in the symptom, an average of which is indicated as the % improvement in responding patients. In Table 3 the probability that positive results (i.e. patients responding to treatment) were due to random effects was calculated using standard statistical analysis of patient tests. It was assumed that if the treatment has no effect, there is a 50% chance that a patient will indicate a positive response and a 50% chance that a patient will indicate a negative response. From this assumption, coupled with the actual data, one may calculate the probability that positive responses are due to an actual effect of the treatment and not simply random effects. In general, results with a less than 1% chance of being random are considered highly significant. […]
# [3] = Relief of symptoms with intradermal estrogen in patients not relieved by progesterone; conditions: 0.4 mg intradermally; many patients whose symptoms are not relieved using progesterone
# [4] = 0.5 mg intradermal injection, 142 women with acute asthma, 15 to 30 seconds after injection
Compound,"average symptomatic relief for those who reported some response ([1]; 0 to 10 scale, responders only)","average symptomatic relief for all patients ([1]; 0 to 10 scale, responding and not responding patients)",% of patients reporting 100% relief of asthma symptoms ([1]; 0.5 mg intradermal injection),average reduction in symptoms relative to the maximum individual patient score ([1]; 0.5 mg intradermal injection),"% of patients positively responding to the treatment [1, 4]","number of patients positively responding to the treatment [1, 4]","number of patients reporting 100% relief of asthma symptoms ([1]; 0.5 mg intradermal injection, of the 129 patients with symptom relief)",effectiveness in producing symptom relief as compared to several other antigens [2],speed of relief ([2]; in most patients),relief of symptoms [3]
CC(=O)[C@H]1CC[C@H]2[C@@H]3CCC4=CC(=O)CC[C@]4(C)[C@H]3CC[C@]12C [Progesterone],5 points,3.4 points,28%,62%,91%,129,40,most effective,very quickly,–
estrogen,–,–,–,–,–,–,–,–,–,experience relief
